Experimental data: publication PMC12281487, “Discovery and Validation of a Novel Class of Necroptosis Inhibitors Targeting RIPK1” (ACS Chemical Biology, 2025)
“Also recorded” adds a separate entry of the source. Counter-ions that a name gives are not always drawn. Like-named read-outs stand apart in the source and are kept apart here. Each block holds one compound with its values, some of them ahead of it.

Key:
[1] = tested on: I2.1 FADD–/– human Jurkat cells; experiment: IncuCyte necroptosis assay in I2.1 cells; details: for EC50: read-out: EC50 (95% CI), necroptosis inhibition; for EC50 values of well-characterized necroptosis inhibitors (assay validation), in words: Figure S1e
Method: A cell-based assay was established to monitor necroptosis in I2.1 cells using the IncuCyte S3 live cell microscopy platform (Figure S1a). Necroptosis was induced by treatment with TNF, and Sytox Green was used to monitor membrane permeabilization over time as an indicator of progressive necroptotic cell death (Figure S1b–d), allowing determination of the EC50 of candidate necroptosis inhibitors.
I2.1 cells were seeded in a sterile 96-well plate (Greiner) at 20,000 cells per well and incubated at 37 °C overnight. The cells were treated with a final concentration of 600 pM TNF, 1 μM Sytox Green, and compounds in a dose-dependent manner. Wells containing TNF and Sytox Green served as positive control. Wells containing DMSO and Sytox Green served as a negative control. The plate was placed into an IncuCyte S3 Live Cell Analysis System (Sartorius) and readings for phase and green fluorescence were taken every hour for 24 h, with 4 images per well. The images were analyzed with IncuCyte 2021C software and the Green Integrated Intensity Per Image/Phase Area Per Image (GCU × μm^2/image/μm^2/image or GP) was exported. The background at t = 0 h was subtracted, and the linear slope (t = 3–7 h) was calculated by plotting GP against time. The percent inhibition of necroptosis was determined by normalizing to the positive and negative controls and graphing against the [compound]. EC50 values were determined using Prism 10 for each replicate, which were then used to calculate the geometric mean EC50 and associated 95% CIs.
I2.1 cells in a 96-well plate were treated with TNF to induce necroptosis, a dilution series of the candidate necroptosis inhibitor and Sytox Green to monitor cell death. Plates were placed in the IncuCyte® and imaged every hour for 24 h. Cell death was measured over time and used to determine the proportion of necroptotic cells compared to those without necroptosis induction or not treated with an inhibitor. The linear portion of the graph was used to determine an initial rate for calculation of the EC50. TNF with Sytox Green and Sytox Green alone were used as positive and negative controls, respectively. […] EC50 values are expressed as the geometric mean with a 95% confidence interval (CI) of at least three biological replicates.

C57BL/6J mice = experiment: TNF-induced SIRS murine model; details: 5 mg/kg i.v. 15 min before TNF 0.5 mg/kg i.v.
Method: Male C57BL/6J mice of 18–25 g were used at the age of 6–8 weeks. Three animals were included in each experimental group. All animal experiments were carried out with the permission of the local animal ethical committee in accordance with the EU Directive (2010/63/EU), Portuguese laws (DL113/2013, 2880/2015, 260/2016), and all relevant legislations. Animals received humane care in a temperature-controlled environment with a 12 h light–dark cycle and ad libitum access to pelleted chow and water, complying with the Institute’s guidelines, and as outlined in the “Guide for the Care and Use of Laboratory Animals” prepared by the National Academy of Sciences and published by the National Institutes of Health (NIH publication 86-23 revised 1985). […] TNF was diluted in sterile PBS. […] All injections were administered intravenously (i.v.).

Aurora kinase B = Aurora kinase B (Homo sapiens, UniProt Q96GD4); experiment: Kinase panel screen (SelectScreen, Z-lyte); format: biochemical; details: single concentration of 1 µM, % inhibition, Figure S2c
Chain of Aurora kinase B (Q96GD4 whole entry): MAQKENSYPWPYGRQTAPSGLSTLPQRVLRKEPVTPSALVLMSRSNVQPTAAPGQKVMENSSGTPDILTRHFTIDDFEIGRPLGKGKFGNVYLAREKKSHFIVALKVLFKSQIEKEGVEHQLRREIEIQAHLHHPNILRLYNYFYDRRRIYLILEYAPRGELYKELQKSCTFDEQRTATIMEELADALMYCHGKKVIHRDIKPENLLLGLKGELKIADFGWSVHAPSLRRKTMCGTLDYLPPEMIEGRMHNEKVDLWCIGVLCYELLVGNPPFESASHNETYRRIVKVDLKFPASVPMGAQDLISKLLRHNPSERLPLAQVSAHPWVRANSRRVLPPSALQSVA
Method: (a) Western blot analysis of RIPK1, RIPK3 and MLKL phosphorylation in HT-29 cells with treatment of necroptosis inhibitors and the 7PQ series. Results are representative of two experiments. […] Results are representative of two experiments. (c) Kinase activity panel screen. Compounds were screened at a single concentration of 1 µM at Thermofisher.
The kinase data was provided by Thermofisher SelectScreen Biochemical Kinase Profiling service using the Z-lyte technology. Each compound was profiled at […] against a representative panel of 25 kinases.

[2] = tested on: RIPK1 Ser166 phosphorylation; experiment: Western blot of RIPK1 Ser166 phosphorylation in I2.1 cells; format: cell-based, human; details: for phosphorylation of RIPK1 Ser166 after TNF: prior treatment with 10 μM compound
Method: All compound treatments were performed with a preprepared 1000× stock of the desired concentration in DMSO and added directly to the relevant plate, with a final concentration of 0.1% DMSO on the cells. TNF (final concentration 575 pM) was added to induce necroptosis, the cells incubated for 4 h and harvested.
(§1) Cells were transferred to a microcentrifuge tube and centrifuged at 200g for 5 min, and media were removed. Cells were washed with PBS and lysed with 100 μL of lysis buffer (radioimmunoprecipitation assay lysis buffer, Sigma-Aldrich, R0278) supplemented with 1× phosphatase inhibitor cocktail 2 (Sigma, P5726) and 1× complete EDTA-free protease inhibitor cocktail (Sigma, […])) on ice for 30 min. The lysate was collected by centrifugation at 17,000g, 4 °C for 5 min, and the lysate was transferred to a new microcentrifuge tube. Protein concentration was determined using the DC Protein Assay (Bio-Rad) in a 96-well plate as per the manufacturer’s instructions and subsequently adjusted to 1 mg mL^–1 using lysis buffer. Samples were prepared by adding 4 μL of 4× loading buffer (Biorad, 161-0747) containing β-mercaptoethanol to 12 μL of protein sample and boiling at 95 °C for 10 min. 14 μL of each sample was loaded onto a 4–15% Mini-PROTEAN TGX precast gel (Biorad, 456-1086) and run in 1× running buffer (0.25 M Tris, 0.2 M glycine, 0.1% (w/v) SDS) for 1.15 h at 130 V. Either 2 μL of precision plus protein all blue prestained protein standards (Bio-Rad, 1610373) or precision plus protein dual color standards (Bio-Rad, 1610374) was used in at least one well.
Proteins were transferred onto a nitrocellulose membrane (GE Healthcare) using the Trans-Blot Turbo Transfer System (Biorad, 1704150) at 2.5 A and 25 V for 7 min. The membrane was stained with Ponceau S to confirm protein transfer prior to blocking with 5% (w/v) nonfat dried skimmed milk in TBS-T (1× Tris-buffered saline, 0.1% (v/v) Tween-20) at rt for 1 h. Staining with the desired primary antibody in 5% (w/v) nonfat dried skimmed milk in TBS-T was performed overnight at 4 °C. The blot was washed with TBS-T at rt (3 × 5 min) and stained with secondary antibody in 5% (w/v) nonfat dried skimmed milk in TBS-T for 1 h at rt. The blot was washed with TBS-T at rt (3 × 5 min), visualized with Immobilon Crescendo Western HRP substrate, and imaged using ImageQuant LAS-4000 Imaging System (Fujifilm), and the contrast normalized in Fiji.

[3] = tested on: RIPK1, RIPK3 and MLKL phosphorylation; experiment: Western blot of RIPK1, RIPK3 and MLKL phosphorylation in HT-29 cells; format: cell-based, human; details: TNF, birinapant and Z-VAD-FMK
Method: All compound treatments were performed with a preprepared 1000× stock of the desired concentration and added directly to the relevant plate with a final concentration of 0.1% DMSO on the cells. A combination of TNF (final concentration of 1.2 nM), Birinapant (final concentration 100 nM), and Z-VAD-FMK (final concentration 20 μM) was added to induce necroptosis, the cells incubated for 7 h, and harvested.
as §1, with “14 μL of each sample was loaded onto a 4–15% Mini-PROTEAN TGX precast gel (Biorad, 456-1086) and run in 1× running buffer (0.25 M Tris, 0.2 M glycine, 0.1% (w/v) SDS) for 1.15 h at 130 V. Either 2 μL of precision plus protein all blue prestained protein standards (Bio-Rad, 1610373) or precision plus protein dual color standards (Bio-Rad, 1610374) was used in at least one well.” left out

RIPK1 = biological target: T1, RIPK1 (Homo sapiens, UniProt Q13546); experiment: Streptavidin mass shift assay (photoaffinity labeling, target engagement) in I2.1 cells; format: cell-based; details: particularly after 5 min of UV irradiation
T1 construct: Following incubation of I2.1 cells with the probe, irradiation to induce photocrosslinking; endogenous in cells; host or cells: I2.1 FADD-deficient Jurkat T cells (ATCC, CRL-2572)
T1 sequence (Q13546 1-671): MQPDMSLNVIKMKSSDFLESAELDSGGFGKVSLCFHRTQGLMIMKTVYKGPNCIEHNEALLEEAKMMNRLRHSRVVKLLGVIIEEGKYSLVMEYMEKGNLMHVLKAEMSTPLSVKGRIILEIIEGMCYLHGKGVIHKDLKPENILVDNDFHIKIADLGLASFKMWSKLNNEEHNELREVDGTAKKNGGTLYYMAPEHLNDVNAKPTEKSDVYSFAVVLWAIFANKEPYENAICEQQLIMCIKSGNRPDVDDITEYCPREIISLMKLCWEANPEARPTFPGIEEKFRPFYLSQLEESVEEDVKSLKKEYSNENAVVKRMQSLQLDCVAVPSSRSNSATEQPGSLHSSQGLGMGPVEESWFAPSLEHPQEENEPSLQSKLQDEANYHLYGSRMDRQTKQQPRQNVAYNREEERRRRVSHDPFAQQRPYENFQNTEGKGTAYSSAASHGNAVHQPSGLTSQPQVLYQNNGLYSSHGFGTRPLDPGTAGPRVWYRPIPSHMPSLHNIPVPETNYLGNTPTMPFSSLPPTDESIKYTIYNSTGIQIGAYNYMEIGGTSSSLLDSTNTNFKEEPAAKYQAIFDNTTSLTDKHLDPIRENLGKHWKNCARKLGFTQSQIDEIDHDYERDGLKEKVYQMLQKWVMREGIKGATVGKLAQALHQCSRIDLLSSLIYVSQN
Method: Target engagement was confirmed by Streptavidin mass shift assay, whereby lysates are incubated with streptavidin and subsequently separated by SDS–PAGE. The high stability of streptavidin at a range of temperatures, in various detergents and pH, in combination with the extremely high affinity for biotin means the streptavidin–biotin interaction is not separated during gel electrophoresis, resulting in a mass shift of biotin-labeled proteins in the presence of streptavidin, which can be visualized by Western blot (Figure a).
I2.1 cells were seeded in sterile six-well plates at a density of 2 × 10^6 cells per well and incubated at 37 °C overnight. 1000× stocks of the desired concentration of compound in DMSO were preprepared. […]
Cells were transferred to a microcentrifuge tube, centrifuged at 200g for 5 min, and media removed. […] Protein concentration was determined using the DC Protein Assay (Bio-Rad) in a 96-well plate as per the manufacturer’s instructions and the concentration adjusted to 1–2 mg mL^–1 using lysis buffer. […]
Samples were prepared by adding 4 μL of 4× loading buffer to 10 μL of the protein samples and boiling at 95 °C for 10 min. […] In-gel fluorescence was detected by using a Typhoon FLA 9500 biomolecular imager (750 V, 100 μm pixels). […]

HT-29 cells = experiment: IncuCyte necroptosis assay in HT-29 cells; format: cell-based, human; details: TNF, birinapant and Z-VAD-FMK induced; Figure S1f
Excerpt: Wells containing TSZ served as a positive control.

[4] = TNF-induced necroptosis, I2.1 cells, Sytox Green, geometric mean with 95% CI, at least three biological replicates

Compound: O=C(c1ccc(-c2ccc3cccnc3c2)cc1)N1CCOCC1 [compound 6, Morpholino(4-(quinolin-7-yl)phenyl)methanone]
EC50 ([1]; Homo sapiens, Jurkat): 23 µM

Compound: CS(=O)(=O)CC1CN(S(=O)(=O)c2ccc(-c3ccc4cccnc4c3)cc2)C1 [AZ’320, 7-(4-((3-((Methylsulfonyl)methyl)azetidin-1-yl)sulfonyl)phenyl)quinoline]
effects on temperature and body weight after TNF (C57BL/6J mice): rescuing effects on temperature and body weight
protection from TNF-induced mortality (survival) (C57BL/6J mice; 3 mice per group): completely reverted the toxic effects induced by TNF; also recorded: preventing mortality
off-target activity in a panel of 25 kinases (Aurora kinase B): off–target activity observed primarily against Aurora kinase B
dose dependence of the effect on phosphorylation of RIPK1 Ser166 [2]: dose dependent
EC50 ([1]; Homo sapiens, Jurkat): 4.9 µM

Compound: COc1nccnc1NS(=O)(=O)c1ccc(NC(=O)/C=C/c2ccc([N+](=O)[O-])s2)cc1 [NSA, Necrosulfonamide, reference compound]
phosphorylation of necrosome components (RIPK1, RIPK3, MLKL) [3]: retained phosphorylation of all components of the necrosome
EC50 values of well-characterized necroptosis inhibitors (assay validation), in words ([1]; I2.1 cells): consistent with those previously reported

Compound: CC(C)(C)OC(=O)N1CC[C@@H](NC(=O)c2ccc(-c3ccc4cccnc4c3)cc2)C1 [compound 5, tert-Butyl (R)-3-(4-(Quinolin-7-yl)benzamido)pyrrolidine-1-carboxylate]
EC50 ([1]; Homo sapiens, Jurkat): 6.7 µM

Compound: tert-Butyl(S)-3-(((N-methyl-4-(quinolin-7-yl)phenyl)sulfonamido)methyl)pyrrolidine-1-carboxylate [compound 3]
EC50 [1, 4]: 2.5 µM

Compound: CN1C(=O)NC(Cc2c[nH]c3c(Cl)cccc23)C1=O (centres unmarked) [Nec-1s, reference compound]
EC50 values of well-characterized necroptosis inhibitors (assay validation), in words ([1]; I2.1 cells): consistent with those previously reported

Compound: CC(C)(C)OC(=O)N1CC[C@H](CNC(=O)c2ccc(-c3ccc4cccnc4c3)cc2)C1 [compound 4, tert-Butyl (R)-3-((4-(Quinolin-7-yl)benzamido)methyl)pyrrolidine-1-carboxylate]
EC50 ([1]; Homo sapiens, Jurkat): 3 µM

Compound: CC(=O)N1CC[C@@H](CN(C)S(=O)(=O)c2ccc(-c3ccc4cccnc4c3)cc2)C1 [compound 1, (R)-N-((1-Acetylpyrrolidin-3-yl)methyl)-N-methyl-4-(quinolin-7-yl)benzenesulfonamide]
EC50 ([1]; Homo sapiens, Jurkat): 1 µM

Compound: O=C(c1ccc(-c2ccc3cnccc3c2)cc1)N1CCOCC1 [compound 8, (4-(Isoquinolin-6-yl)phenyl)(morpholino)methanone]
EC50 (95% CI), necroptosis inhibition [1, 4]: Inactive

Compound: O=C(c1ccc(-c2ccc3ccncc3c2)cc1)N1CCOCC1 [compound 7, (4-(Isoquinolin-7-yl)phenyl)(morpholino)methanone]
EC50 (95% CI), necroptosis inhibition [1, 4]: Inactive

Compound: O=C(c1ccc(-c2ccc3ccccc3n2)cc1)N1CCOCC1 [compound 11, Morpholino(4-(quinolin-2-yl)phenyl)methanone]
EC50 (95% CI), necroptosis inhibition [1, 4]: Inactive

engagement of RIPK1 by the probe (streptavidin-shifted band) (RIPK1): Dose-dependent engagement of RIPK1
Compound: C#CCN(CCC1(C)N=N1)S(=O)(=O)c1ccc(-c2ccc3cccnc3c2)cc1 [7PQYnD, N-(2-(3-Methyl-3H-diazirin-3-yl)ethyl)-N-(prop-2-yn-1-yl)-4-(quinolin-7-yl)benzenesulfonamide]
phosphorylation of RIPK1 Ser166 after TNF [2]: blocked
EC50 ([1]; Homo sapiens, Jurkat): 8.9 µM
fold less potent than the parent compounds AZ’902 and AZ’320 (necroptosis inhibition) ([1]; I2.1 cells): 2–5 fold

Compound: O=C(c1ccc(-c2ccc3nccnc3c2)cc1)N1CCOCC1 [compound 12, Morpholino(4-(quinoxalin-6-yl)phenyl)methanone]
EC50 (95% CI), necroptosis inhibition [1, 4]: Inactive; also recorded: loss of activity

Compound: CC(=O)N1CC[C@H](CN(C)S(=O)(=O)c2ccc(-c3ccc4cccnc4c3)cc2)C1 [AZ’902, (S)-N-((1-Acetylpyrrolidin-3-yl)methyl)-N-methyl-4-(quinolin-7-yl)benzenesulfonamide]
off-target activity in a panel of 25 kinases (Aurora kinase B): off–target activity observed primarily against Aurora kinase B
necroptosis inhibition activity in HT-29 cells (HT-29 cells): confirmed
dose dependence of the effect on phosphorylation of RIPK1 Ser166 [2]: dose dependent
phosphorylation of RIPK1 Ser166 after TNF [2]: blocked
EC50 ([1]; Homo sapiens, Jurkat): 1.6 µM

Compound: CC(C)S(=O)(=O)c1ccc2nccc(Nc3ccc4scnc4c3)c2c1 [GSK’872, reference compound]
phosphorylation of necrosome components (RIPK1, RIPK3, MLKL) [3]: inhibited phosphorylation of RIPK3 and MLKL but not RIPK1
phosphorylation of RIPK1 Ser166 after TNF [2]: no inhibition
EC50 values of well-characterized necroptosis inhibitors (assay validation), in words ([1]; I2.1 cells): consistent with those previously reported

Compound: O=C(c1ccc(-c2ccc3ncccc3c2)cc1)N1CCOCC1 [compound 9, Morpholino(4-(quinolin-6-yl)phenyl)methanone]
EC50 (95% CI), necroptosis inhibition [1, 4]: Inactive

Compound: CN(C[C@H]1CCNC1)S(=O)(=O)c1ccc(-c2ccc3cccnc3c2)cc1 [compound 2, (S)-N-Methyl-N-(pyrrolidin-3-ylmethyl)-4-(quinolin-7-yl)benzenesulfonamide·HCl]
EC50 ([1]; Homo sapiens, Jurkat): 1.7 µM

Compound: O=C(c1ccc(-c2cnc3ccccc3c2)cc1)N1CCOCC1 [compound 10, Morpholino(4-(quinolin-3-yl)phenyl)methanone]
EC50 (95% CI), necroptosis inhibition [1, 4]: Inactive
